This assay relates to HL-60. The experiment in a line: Inhibitory concentration which reduces half the percentage of differentiated HL-60 cells induced by 1x 10 e-9 M Am80. The conditions noted are these: Homo sapiens. The format is functional, cell-based.

IC50 data for one compound are collected here from ChEMBL document CHEMBL1133259, “Polymethylcarborane as a novel bioactive moiety: derivatives with potent retinoid antagonistic activity” (Bioorg Med Chem Lett, 2000).

By IC50 is commonly meant the concentration that gives 50% inhibition. A high value points to weaker potency in that assay.

For `CN1c2cc3c(cc2N=C(c2ccc(C(=O)O)cc2)c2ccc4ccccc4c21)C(C)(C)CCC3(C)C`, 17 nM corresponded to half-maximal inhibition (IC50).
